From BindingDB's records for doi:10.1016/j.bmcl.2008.12.050 (Merck Research Laboratories, 2009)
Where a name gives a salt, the structure may show the parent alone.

Experiment: Antagonist activity at human CCR2 receptor expressed in CHO cells by chemotaxis assay

SMILES	IC50 [nM]
CCCC1COCCC1N[C@@H]1CC[C@@](C(=O)NCc2cc(C(F)(F)F)cc(C(F)(F)F)c2)(C(C)C)C1 (stereo partly drawn) [(1S,3R)-N-(3,5-bis(trifluoromethyl)benzyl)-1-isopropyl-3-(3-propyltetrahydro-2H-pyran-4-ylamino)cyclopentanecarboxamide]	5.1
CC(C)[C@]1(C(=O)NCc2cc(C(F)(F)F)cc(C(F)(F)F)c2)CC[C@@H](NC2COC2)C1 [(1S,3R)-N-(3,5-bis(trifluoromethyl)benzyl)-1-isopropyl-3-(oxetan-3-ylamino)cyclopentanecarboxamide trifluoroacetate]	3.3

The next molecules have a lower IC50 than those just listed; values first:

IC50 [nM]	SMILES
1	CC(C)[C@]1(C(=O)NCc2cc(C(F)(F)F)cc(C(F)(F)F)c2)CC[C@@H](NC2CCOCC2C(F)(F)F)C1 (stereo partly drawn) [(1S,3R)-N-(3,5-bis(trifluoromethyl)benzyl)-1-isopropyl-3-(3-(trifluoromethyl)tetrahydro-2H-pyran-4-ylamino)cyclopentanecarboxamide]
0.8	CC(C)[C@]1(C(=O)NCc2cc(C(F)(F)F)cc(C(F)(F)F)c2)CC[C@@H](NC2CCOCC2F)C1 (stereo partly drawn) [(1S,3R)-N-(3,5-bis(trifluoromethyl)benzyl)-3-(3-fluorotetrahydro-2H-pyran-4-ylamino)-1-isopropylcyclo pentanecarboxamide]
0.3	CCC1COCCC1N[C@@H]1CC[C@@](C(=O)NCc2cc(C(F)(F)F)cc(C(F)(F)F)c2)(C(C)C)C1 (stereo partly drawn) [(1S,3R)-N-(3,5-bis(trifluoromethyl)benzyl)-3-(3-ethyltetrahydro-2H-pyran-4-ylamino)-1-isopropylcyclopentanecarboxamide]
0.1	CC1COCCC1N[C@@H]1CC[C@@](C(=O)NCc2cc(C(F)(F)F)cc(C(F)(F)F)c2)(C(C)C)C1 (stereo partly drawn) [(1S,3R)-N-(3,5-bis(trifluoromethyl)benzyl)-1-isopropyl-3-(3-methyltetrahydro-2H-pyran-4-ylamino)cyclopentanecarboxamide]
